Experimental data: US20240215577A1, “FUNGICIDAL PYRIDONES” (FMC Corporation, priority 2021, published 2024)

Columns and labels:
[1] = tested on: Alternaria solani; assay: Test F: tomato early blight, preventive spray on tomato seedlings; format: in vivo; conditions: 50 ppm, 100 = 100% disease control, 0 = no control; for pest or weed control at 50 ppm: Alternaria solani, read-out: Test F disease control rating
Method in brief: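 Compounds in acetone/water (50/50) with 250 ppm PEG400 were sprayed to run-off on tomato seedlings and inoculated with Alternaria solani spores the next day. Plants were held in saturated humidity at 27° C for 48 h, then at 20° C for 3 days. Disease control was rated visually, 0–100, against controls.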

[2] = tested on: Puccinia recondita f. sp. tritici; assay: Test B: wheat leaf rust, preventive spray on wheat seedlings; format: in vivo; conditions: 50 ppm, 100 = 100% disease control, 0 = no control; for pest or weed control at 50 ppm: Puccinia recondita, read-out: Test B disease control rating
Method in brief: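 Wheat seedlings sprayed to run-off with compound suspended at set ppm in 50/50 acetone/water (3% acetone pre-dissolution, 250 ppm PEG400); inoculated with rust spores next day. Held 24 h saturated at 20° C., then 7 days in growth chamber at 20° C.; visual rating, 0–100% disease control versus controls.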

[3] = tested on: Blumeria graminis f. sp. tritici; assay: Test C: wheat powdery mildew, preventive spray on wheat seedlings; format: in vivo; conditions: 50 ppm, 100 = 100% disease control, 0 = no control; for pest or weed control at 50 ppm: Blumeria graminis, read-out: Test C disease control rating
Method in brief: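 Preventive assay: wheat seedlings sprayed to run-off with compound at the stated ppm (acetone/water 50/50, 250 ppm PEG400), dusted with B. graminis f. sp. tritici spores the following day, then kept 8 days at 20°C. Disease control visually scored 0-100 versus controls.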

[4] = tested on: Phakopsora pachyrhizi; assay: Test D: Asian soybean rust, preventive spray on soybean seedlings; format: in vivo; conditions: 50 ppm, 100 = 100% disease control, 0 = no control; for pest or weed control at 50 ppm: Phakopsora pachyrhizi, 216 h, read-out: Test D disease control rating
Method in brief: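 Soybean seedlings sprayed to run-off with compound suspension (ppm, in 50/50 acetone/water with 250 ppm PEG400), inoculated next day with P. pachyrhizi spores, held 24 h saturated at 22°C then 8 days at 22°C. Visual rating 0-100% disease control relative to controls.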

[5] = tested on: Botrytis cinerea; assay: Test E: tomato Botrytis, preventive spray on tomato seedlings; format: in vivo; conditions: 50 ppm, 100 = 100% disease control, 0 = no control; for pest or weed control at 50 ppm: Botrytis cinerea, read-out: Test E disease control rating
Method in brief: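 Compounds dissolved in acetone (3% of final volume), suspended in 50/50 acetone/water with 250 ppm PEG400, sprayed to run-off on seedlings. Spore inoculation next day; 48 h saturated atmosphere at 20° C, then 3 days at 24° C. Visual disease rating 0–100% control relative to controls.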

[6] = tested on: Zymoseptoria tritici; assay: Test A: wheat leaf blotch, preventive spray on wheat seedlings; format: in vivo; conditions: 50 ppm, 100 = 100% disease control, 0 = no control; for pest or weed control at 50 ppm: Zymoseptoria tritici, read-out: Test A disease control rating
Method in brief: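 Wheat seedlings were sprayed to run-off with compound in acetone/water 50/50 containing 250 ppm PEG400 and inoculated with Z. tritici spores the next day. Plants were held 48 h saturated at 24 °C, then 17 days at 20 °C. Disease was rated 0–100% control relative to controls.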

SMILES: COc1cc(OC)c(Br)c(-c2cn(C)c(=O)c(Cl)c2-c2ccc(F)cc2F)c1 [Compound 9, 5-(2-bromo-3,5-dimethoxyphenyl)-3-chloro-4-(2,4-difluorophenyl)-1-methyl-2(1H)-pyridinone]
- melting point: 211 to 214 °C
- pest or weed control at 50 ppm [1]: 100%
- pest or weed control at 50 ppm [2]: 100%
- pest or weed control at 50 ppm [3]: 99%
- pest or weed control at 50 ppm [4]: 100%
- pest or weed control at 50 ppm [5]: 98%
- pest or weed control at 50 ppm [6]: 100%

SMILES: COc1cc(OC)c(Cl)c(-c2cn(C)c(=O)c(C)c2-c2ccc(F)cc2Cl)c1 [Compound 13, 5-(2-chloro-3,5-dimethoxyphenyl)-4-(2-chloro-4-fluorophenyl)-1,3-dimethyl-2(1H)-pyridinone]
- melting point: 140 to 143 °C
- pest or weed control at 50 ppm [1]: 100%
- pest or weed control at 50 ppm [2]: 100%
- pest or weed control at 50 ppm [3]: 100%
- pest or weed control at 50 ppm [4]: 100%
- pest or weed control at 50 ppm [5]: 94%
- pest or weed control at 50 ppm [6]: 100%

SMILES: COc1ccc(Br)c(-c2cn(C)c(=O)c(Cl)c2-c2ccc(F)cc2F)c1 [Compound 20, 5-(2-bromo-5-methoxyphenyl)-3-chloro-4-(2,4-difluorophenyl)-1-methyl-2(1H)-pyridinone]
- melting point: 227 to 230 °C
- pest or weed control at 50 ppm [1]: 99%
- pest or weed control at 50 ppm [2]: 100%
- pest or weed control at 50 ppm [3]: 98%
- pest or weed control at 50 ppm [4]: 97%
- pest or weed control at 50 ppm [5]: 98%
- pest or weed control at 50 ppm [6]: 100%

SMILES: COc1cc(OC)c(Cl)c(-c2cn(C)c(=O)c(Cl)c2-c2ccc(F)cc2F)c1 [Compound 29, 3-chloro-5-(2-chloro-3,5-dimethoxyphenyl)-4-(2,4-difluorophenyl)-1-methyl-2(1H)-pyridinone]
- melting point: 189 to 192 °C
- pest or weed control at 50 ppm [1]: 99%
- pest or weed control at 50 ppm [2]: 100%
- pest or weed control at 50 ppm [3]: 99%
- pest or weed control at 50 ppm [4]: 100%
- pest or weed control at 50 ppm [5]: 94%
- pest or weed control at 50 ppm [6]: 100%

SMILES: COc1ccc(Cl)c(-c2cn(C)c(=O)c(Cl)c2-c2ccc(F)cc2F)c1 [Compound 30, 3-chloro-5-(2-chloro-5-methoxyphenyl)-4-(2,4-difluorophenyl)-1-methyl-2(1H)-pyridinone]
- melting point: 192 to 195 °C
- pest or weed control at 50 ppm [1]: 99%
- pest or weed control at 50 ppm [2]: 100%
- pest or weed control at 50 ppm [3]: 100%
- pest or weed control at 50 ppm [4]: 100%
- pest or weed control at 50 ppm [5]: 94%
- pest or weed control at 50 ppm [6]: 100%

SMILES: COc1cc(OC)c(F)c(-c2cn(C)c(=O)c(Cl)c2-c2ccc(F)cc2F)c1 [Compound 51, 3-chloro-4-(2,4-difluorophenyl)-5-(2-fluoro-3,5-dimethoxyphenyl)-1-methyl-2(1H)-pyridinone]
- melting point: 155 to 158 °C
- pest or weed control at 50 ppm [1]: 100%
- pest or weed control at 50 ppm [2]: 100%
- pest or weed control at 50 ppm [3]: 98%
- pest or weed control at 50 ppm [4]: 99%
- pest or weed control at 50 ppm [5]: 98%
- pest or weed control at 50 ppm [6]: 100%

SMILES: C=CCn1cc(-c2cc(OC)ccc2Cl)c(-c2ccc(F)cc2Cl)c(Cl)c1=O [Compound 77]
- Test F disease control rating [1]: 0%
- Test B disease control rating [2]: 74%
- Test C disease control rating [3]: 0%
- Test D disease control rating [4]: 0%
- Test E disease control rating [5]: 91%
- Test A disease control rating [6]: 40%
